Assay results: paper PMC3506555, “[^11C]phenytoin revisited: synthesis by [^11C]CO carbonylation and first evaluation as a P-gp tracer in rats” (EJNMMI Research, 2012)

Key:
[1] = Observation of animals after probenecid administration; assay type: in vivo; conditions: probenecid 150 mg·kg^−1 i.v., during 30 to 40 min after administration
P-gp = tested on: P-gp; parameters: method as in PMID 14642487, PMID 16857389, PMID 15961982, PMID 18783208, PMID 19647170; conditions: rat and human brain; cited from earlier work

SMILES | Breathing frequency after administration [1] | Brain-to-plasma equilibrium concentration ratio (VT) at baseline (P-gp)
CCCN(CCC)S(=O)(=O)c1ccc(C(=O)O)cc1 [probenecid] | severely depressed breathing frequency | 
COc1cc2c(cc1OC)CN(CCc1ccc(NC(=O)c3cc(O[11CH3])c(OC)cc3NC(=O)c3cnc4ccccc4c3)cc1)CC2 [^11C]tariquidar] |  | about 1
COC(=O)c1cnc2n1CCc1ccccc1C2=C1CCN(CCc2ccc(OCc3ccc4ccccc4n3)cc2)CC1 [^11C]laniquidar] |  | about 1
[11CH3]NC(=O)C(CCN1CCC(O)(c2ccc(Cl)cc2)CC1)(c1ccccc1)c1ccccc1 [^11C]desmethyl loperamide] |  | about 1
